Test results reported in patent US7319098B2, “1,3-dioxoisoindole derivatives having selective antagonism of T-type calcium channel” (Korea Institute of Science and Technology, priority 2006, dated 2008).

What follows are compounds tested against T1, α1G T-type Ca2+ channels (Homo sapiens, UniProt O43497) (assay: Screening of activity against T-type calcium channel with FDSS6000 (fluorescence, KCl-induced [Ca2+]i increase)). Settings: 10 μM; HEK293 cells expressing α1G and Kir2.1; NA: Not Active; read-out: Inhibitory effect (%) of T-type calcium channel, Inhibition (%).
T1 construct: expressed in transfected cells; host or cells: HEK293 cells stably expressing α1G and Kir2.1
T1 sequence (O43497 whole entry): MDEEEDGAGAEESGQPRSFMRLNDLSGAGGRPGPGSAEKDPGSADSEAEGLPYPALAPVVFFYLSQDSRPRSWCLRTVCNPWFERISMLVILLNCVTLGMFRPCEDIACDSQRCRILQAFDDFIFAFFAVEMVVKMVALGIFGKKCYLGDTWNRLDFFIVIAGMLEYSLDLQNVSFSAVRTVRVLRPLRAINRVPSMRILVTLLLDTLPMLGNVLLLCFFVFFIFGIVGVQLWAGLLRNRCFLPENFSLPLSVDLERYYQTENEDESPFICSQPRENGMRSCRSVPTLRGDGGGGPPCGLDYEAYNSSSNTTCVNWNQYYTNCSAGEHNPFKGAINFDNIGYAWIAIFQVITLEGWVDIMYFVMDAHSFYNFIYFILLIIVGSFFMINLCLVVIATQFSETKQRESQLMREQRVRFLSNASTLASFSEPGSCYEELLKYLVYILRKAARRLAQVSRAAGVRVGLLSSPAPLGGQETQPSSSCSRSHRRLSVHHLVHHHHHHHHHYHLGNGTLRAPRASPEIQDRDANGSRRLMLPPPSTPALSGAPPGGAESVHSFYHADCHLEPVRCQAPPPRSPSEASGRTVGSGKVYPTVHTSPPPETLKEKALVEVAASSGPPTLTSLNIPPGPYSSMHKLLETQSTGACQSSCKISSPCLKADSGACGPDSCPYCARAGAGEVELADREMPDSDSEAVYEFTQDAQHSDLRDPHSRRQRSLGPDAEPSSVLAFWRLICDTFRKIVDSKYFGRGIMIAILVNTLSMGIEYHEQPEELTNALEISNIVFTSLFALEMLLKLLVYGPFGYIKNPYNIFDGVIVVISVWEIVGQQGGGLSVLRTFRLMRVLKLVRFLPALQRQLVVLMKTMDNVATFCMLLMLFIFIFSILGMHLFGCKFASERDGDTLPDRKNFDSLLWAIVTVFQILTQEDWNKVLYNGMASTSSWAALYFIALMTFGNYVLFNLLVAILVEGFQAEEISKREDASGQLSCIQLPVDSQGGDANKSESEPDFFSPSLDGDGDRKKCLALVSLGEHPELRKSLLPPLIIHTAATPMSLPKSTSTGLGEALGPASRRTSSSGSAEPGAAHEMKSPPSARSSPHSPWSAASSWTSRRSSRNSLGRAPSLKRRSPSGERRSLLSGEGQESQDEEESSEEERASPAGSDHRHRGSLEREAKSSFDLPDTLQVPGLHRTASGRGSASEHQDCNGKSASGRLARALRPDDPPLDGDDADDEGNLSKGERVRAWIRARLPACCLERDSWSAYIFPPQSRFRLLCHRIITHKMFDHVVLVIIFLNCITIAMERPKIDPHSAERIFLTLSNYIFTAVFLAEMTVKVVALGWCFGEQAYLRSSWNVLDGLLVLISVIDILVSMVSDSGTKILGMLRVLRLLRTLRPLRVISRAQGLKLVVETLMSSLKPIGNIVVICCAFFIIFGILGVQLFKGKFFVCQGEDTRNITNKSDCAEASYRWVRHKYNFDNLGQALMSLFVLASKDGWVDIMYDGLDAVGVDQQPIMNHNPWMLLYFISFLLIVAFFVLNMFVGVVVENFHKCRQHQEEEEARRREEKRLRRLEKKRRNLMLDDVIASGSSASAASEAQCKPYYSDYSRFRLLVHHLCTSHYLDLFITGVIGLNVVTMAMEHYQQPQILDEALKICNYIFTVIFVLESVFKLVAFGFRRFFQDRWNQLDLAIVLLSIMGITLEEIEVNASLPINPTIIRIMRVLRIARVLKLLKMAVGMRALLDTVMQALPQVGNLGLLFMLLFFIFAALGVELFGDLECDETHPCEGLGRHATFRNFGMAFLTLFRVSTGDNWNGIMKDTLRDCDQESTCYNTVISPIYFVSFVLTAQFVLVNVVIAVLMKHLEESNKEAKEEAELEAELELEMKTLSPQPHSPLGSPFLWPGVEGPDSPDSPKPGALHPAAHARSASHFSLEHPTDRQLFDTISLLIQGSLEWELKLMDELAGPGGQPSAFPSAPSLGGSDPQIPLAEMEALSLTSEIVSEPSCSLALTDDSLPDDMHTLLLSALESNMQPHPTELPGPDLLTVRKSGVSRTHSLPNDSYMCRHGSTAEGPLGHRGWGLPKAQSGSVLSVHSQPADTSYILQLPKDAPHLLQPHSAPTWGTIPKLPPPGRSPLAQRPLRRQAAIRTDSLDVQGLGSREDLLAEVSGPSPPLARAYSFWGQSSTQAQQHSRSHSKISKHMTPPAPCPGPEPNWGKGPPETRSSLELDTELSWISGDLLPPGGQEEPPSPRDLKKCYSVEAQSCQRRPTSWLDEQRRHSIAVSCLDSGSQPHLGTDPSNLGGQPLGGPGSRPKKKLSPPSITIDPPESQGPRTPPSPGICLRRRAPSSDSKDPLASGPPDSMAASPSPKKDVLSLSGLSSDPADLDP
Type: cell-based
Procedure: Meanwhile, the antagonistic activity of the novel compound of Formula (1) herein against T-type calcium channel was tested as described below. The synthesized compounds were tested for the activity against T-type calcium channel with FDSS6000. Compounds with good activity were selected and IC50 values were exactly obtained by using electrophysiological whole cell patch clamp method. HEK293 cells which stably express both α1G and Kir2.1 subunits were grown in Dulbecco's modified Eagle's medium supplemented with 10% (v/v) fetal bovine serum, penicillin (100 U/mL), streptomycin (100 μg/mL), geneticin (500 μg/mL), and +puromycin (I μg/mL) at 37° C. in a humid atmosphere of 5% CO2 and 95% air. Cells were seeded into 96-well black wall clear bottom plates at a density of 4×10^4 cells/well and were used the next day for high-throughput screening (HTS) FDSS6000 assay. For FDSS6000 assay, cells were incubated for 60 min at room temperature with 5 μM fluo3/AM and 0.001% Pluronic F-127 in a HEPES-buffered solution composed of (in mM): 115 NaCl, 5.4 KCl, 0.8 MgCl2, 1.8 CaCl2, 20 HEPES, 13.8 glucose (pH 7.4). During the fluorescence-based FDSS6000 assay, cells in HEPES-buffered solution containing 10 mM CaCl2 were pretreated with a certain concentration of test compounds and then treated with high concentration of KCl ([…]). α1G T-type Ca^2+ channels were activated by using high concentration of KCl (70 mM) and the increase in [Ca^2+]i by KCl-induced depolarization was detected. During the whole procedure, cells were washed using the BIO-TEK 96-well washer. All data were collected and analyzed using FDSS6000 and related software (Hamamatsu, Japan). The IC50 results of examining the inhibitory effects of the compounds herein selected with FDSS6000 on the calcium influx through the T-type calcium channel are provided in TABLEs 1 and 2.

| Compound | inhibition at 10 µM [%] |
| --- | --- |
| O=C(NCCN1CCOCC1)c1ccc2c(c1)C(=O)N(Cc1cccc(Cl)c1)C2=O [Compound 85, 4-(2-{[2-(3-chloro-benzyl)-1,3-dioxo-2,3-dihydro-1H-isoindol-5-carbonyl]-amino}-ethyl)-4-morpholinium chloride] | 25.3 |
| O=C(NCCN1CCCC1)c1ccc2c(c1)C(=O)N(Cc1ccccc1Cl)C2=O [Compound 77, 1-(2-{[2-(2-chloro-benzyl)-1,3-dioxo-2,3-dihydro-1H-isoindol-5-carbonyl]-amino}-ethyl)-pyrrolidinium chloride] | 21.5 |
| Cc1ccc(CN2C(=O)c3ccc(C(=O)NCCCN4CCCC4)cc3C2=O)cc1 [Compound 108, 1-(3-{[2-(4-methyl-benzyl)-1,3-dioxo-2,3-dihydro-1H isoindol-5-carbonyl]-amino}-propyl)-pyrrolidinium chloride] | 15.6 |
| Cc1ccccc1CN1C(=O)c2ccc(C(=O)NCCCN3CCCC3)cc2C1=O [Compound 96, 1-(3-{[2-(2-methyl-benzyl)-1,3-dioxo-2,3-dihydro-1H-isoindol-5-carbonyl]-amino}-propyl)-pyrrolidinium chloride] | 15.5 |
| CN1CCN(CCCNC(=O)c2ccc3c(c2)C(=O)N(Cc2cccc(F)c2)C3=O)CC1 [Compound 67, 1-(3-{[2-(3-fluoro-benzyl)-1,3-dioxo-2,3-dihydro-1H-isoindol-5-carbonyl]-amino}-propyl)-4-methyl-1-piperazinium chloride] | 2.2 |
| Cc1cccc(N2C(=O)c3ccc(C(=O)NCCN4CCOCC4)cc3C2=O)c1 [Compound 37, 4-{2-[(1,3-dioxo-2-m-tolyl-2,3-dihydro-1H-isoindol-5-carbonyl)-amino]-ethyl}-4-morpholinium chloride] | 1.3 |
| O=C(NCCCN1CCCC1)c1ccc2c(c1)C(=O)N(Cc1ccc(Cl)cc1)C2=O [Compound 90, 1-(3-{[2-(4-chloro-benzyl)-1,3-dioxo-2,3-dihydro-1H-isoindol-5-carbonyl]-amino}-propyl)-pyrrolidinium chloride] | 35 |
| Cc1cccc(N2C(=O)c3ccc(C(=O)NCCCN4CCCC4)cc3C2=O)c1 [Compound 36, 1-{3-[(1,3-dioxo-2-m-tolyl-2,3-dihydro-1H-isoindol-5-carbonyl)-amino]-propyl}-pyrrolidinium chloride] | 5.3 |
| O=C(NCCCN1CCOCC1)c1ccc2c(c1)C(=O)N(Cc1ccc(Cl)cc1)C2=O [Compound 92, 4-(3-{[2-(4-chloro-benzyl)-1,3-dioxo-2,3-dihydro-1H-isoindol-5-carbonyl]-amino}-propyl)-4-morpholinium chloride] | 29.9 |
| Cc1cccc(N2C(=O)c3ccc(C(=O)NCCCN4CCCCC4C)cc3C2=O)c1 (centres unmarked) [Compound 34, 1-{3-[(1,3-dioxo-2-m-tolyl-2,3-dihydro-1H-isoindol-5-carbonyl)-amino]-propyl}-2-methyl-piperidinium chloride] | 10 |
| O=C(NCCN1CCCC1)c1ccc2c(c1)C(=O)N(Cc1cccc(Cl)c1)C2=O [Compound 83, 1-(2-{[2-(3-chloro-benzyl)-1,3-dioxo-2,3-dihydro-1H-isoindol-5-carbonyl]-amino}-ethyl)-pyrrolidinium chloride] | 28.9 |

Same assay, conditions: 100 μM; HEK293 cells expressing α1G and Kir2.1; read-out: Inhibitory effect (%) of T-type calcium channel, Inhibition (%)

| Compound | inhibition at 100 µM [%] |
| --- | --- |
| Cc1ccccc1N1C(=O)c2ccc(C(=O)NCCN3CCOCC3)cc2C1=O [Compound 32, 4-{2-[(1,3-dioxo-2-o-tolyl-2,3-dihydro-1H-isoindol-5-carbonyl)-amino]-ethyl}-4-morpholinium chloride] | 22.3 |
| CC1CCCCN1CCCNC(=O)c1ccc2c(c1)C(=O)N(Cc1cccc(F)c1)C2=O (centres unmarked) [Compound 62, 1-(3-{[2-(3-fluoro-benzyl)-1,3-dioxo-2,3-dihydro-1H-isoindol-5-carbonyl]-amino}-propyl)-2-methyl-piperidinium chloride] | 83.5 |
| Cc1ccccc1N1C(=O)c2ccc(C(=O)NCCN3CCCCC3)cc2C1=O [Compound 28, 1-{2-[(1,3-dioxo-2-o-tolyl-2,3-dihydro-1H-isoindol-5-carbonyl)-amino]-ethyl}-piperidinium chloride] | 45.6 |
| O=C(NCCCN1CCCC1)c1ccc2c(c1)C(=O)N(c1ccc(F)cc1)C2=O [Compound 22, 1-(3-{[2-(4-fluoro-phenyl)-1,3-dioxo-2,3-dihydro-1H-isoindol-5-carbonyl]-amino}-propyl)-pyrrolidinium chloride] | 19.3 |
| O=C(NCCCN1CCOCC1)c1ccc2c(c1)C(=O)N(Cc1cccc(F)c1)C2=O [Compound 66, 4-(3-{[2-(3-fluoro-benzyl)-1,3-dioxo-2,3-dihydro-1H-isoindol-5-carbonyl]-amino}-propyl)-4-morpholinium chloride] | 59.8 |
| O=C(NCCN1CCOCC1)c1ccc2c(c1)C(=O)N(Cc1ccccc1)C2=O [Compound 53, 4-{2-[(2-benzyl-1,3-dioxo-2,3-dihydro-1H-isoindol-5-carbonyl)-amino]-ethyl}-4-morpholinium chloride] | 42.5 |
| O=C(NCCN1CCOCC1)c1ccc2c(c1)C(=O)N(c1ccccc1F)C2=O [Compound 11, 4-(2-{[2-(2-fluoro-phenyl)-1,3-dioxo-2,3-dihydro-1H-isoindol-5-carbonyl]-amino}-ethyl)-4-morpholinium chloride] | 22.7 |
| COc1cccc(CN2C(=O)c3ccc(C(=O)NCCN4CCOCC4)cc3C2=O)c1 [Compound 121, 4-(2-{[2-(3-methoxy-benzyl)-1,3-dioxo-2,3-dihydro-1H-isoindol-5-carbonyl]-amino}-ethyl)-4-morpholinium chloride] | 57.6 |
| COc1ccc(CN2C(=O)c3ccc(C(=O)NCCCN4CCCC4)cc3C2=O)cc1 [Compound 126, 1-(3-{[2-(4-methoxy-benzyl)-1,3-dioxo-2,3-dihydro-1H-isoindol-5-carbonyl]-amino}-propyl)-pyrrolidinium chloride] | 73.8 |
| COc1ccc(CN2C(=O)c3ccc(C(=O)NCCCN4CCOCC4)cc3C2=O)cc1 [Compound 128, 4-(3-{[2-(4-methoxy-benzyl)-1,3-dioxo-2,3-dihydro-1H-isoindol-5-carbonyl]-amino}-propyl)-4-morpholinium chloride] | 52.9 |
| O=C(NCCCN1CCOCC1)c1ccc2c(c1)C(=O)N(c1cccc(F)c1)C2=O [Compound 18, 4-(3-{[2-(3-fluoro-phenyl)-1,3-dioxo-2,3-dihydro-1H-isoindol-5-carbonyl]-amino}-propyl)-4-morpholinium chloride] | 22.7 |
| O=C(NCCCN1CCOCC1)c1ccc2c(c1)C(=O)N(Cc1ccccc1F)C2=O [Compound 60, 4-(3-{[2-(2-fluoro-benzyl)-1,3-dioxo-2,3-dihydro-1H-isoindol-5-carbonyl]-amino}-propyl)-4-morpholinium chloride] | 60.8 |
| O=C(NCCN1CCCCC1)c1ccc2c(c1)C(=O)N(c1ccccc1)C2=O [Compound 1, 1-{2-[(1,3-dioxo-2-phenyl-2,3-dihydro-1H-isoindol-5-carbonyl)-amino]-ethyl}-piperidinium chloride] | 28.1 |
| O=C(NCCN1CCOCC1)c1ccc2c(c1)C(=O)N(Cc1ccc(F)cc1)C2=O [Compound 72, 4-(2-{[2-(4-fluoro-benzyl)-1,3-dioxo-2,3-dihydro-1H-isoindol-5-carbonyl]-amino}-ethyl)-4-morpholinium chloride] | 46.4 |
| O=C(NCCN1CCCCC1)c1ccc2c(c1)C(=O)N(c1ccccc1Cl)C2=O [Compound 25, 1-(2-{[2-(2-chloro-phenyl)-1,3-dioxo-2,3-dihydro-1H-isoindol-5-carbonyl]-amino}-ethyl)-piperidinium chloride] | 38.2 |
| O=C(NCCN1CCCCC1)c1ccc2c(c1)C(=O)N(c1cccc(Cl)c1)C2=O [Compound 26, 1-(2-{[2-(3-chloro-phenyl)-1,3-dioxo-2,3-dihydro-1H isoindol-5-carbonyl]-amino}-ethyl)-piperidinium chloride] | 52.7 |
| COc1cccc(CN2C(=O)c3ccc(C(=O)NCCCN4CCCCC4C)cc3C2=O)c1 (centres unmarked) [Compound 118, 1-(3-{[2-(3-methoxy-benzyl)-1,3-dioxo-2,3-dihydro-1H-isoindol-5-carbonyl]-amino}-propyl)-2-methyl-piperidinium chloride] | 71.1 |
| COc1ccc(CN2C(=O)c3ccc(C(=O)NCCN4CCCCC4)cc3C2=O)cc1 [Compound 123, 1-(2-{[2-(4-methoxy-benzyl)-1,3-dioxo-2,3-dihydro-1H isoindol-5-carbonyl]-amino}-ethyl)-piperidinium chloride] | 64.3 |
